{"source": "ChEMBL document CHEMBL3393020", "about": "“Biofilm inhibition of linezolid-like Schiff bases: synthesis, biological activity, molecular docking and in silico ADME prediction” (Bioorg Med Chem Lett, 2015)", "key": {"[1]": {"tested_on": "Pseudomonas aeruginosa", "assay": "Effect on planktonic cells growth of Pseudomonas aeruginosa PAO1 incubated for 15 mins by field emission scanning electron microscopy", "assay_type": "organism-based", "settings": "0.25 h"}, "[2]": {"tested_on": "Pseudomonas aeruginosa", "assay": "Inhibition of biofilm formation of Pseudomonas aeruginosa PAO1 incubated for 15 mins by field emission scanning electron microscopy", "assay_type": "functional, organism-based"}, "[3]": {"tested_on": "Pseudomonas aeruginosa", "assay": "Antibacterial activity against Pseudomonas aeruginosa NCIM-2036 incubated for 24 hrs by two fold serial dilution method", "assay_type": "functional", "settings": "NCIM-2036, 24 h"}, "[4]": {"tested_on": "Pseudomonas aeruginosa", "assay": "Inhibition of biofilm formation of Pseudomonas aeruginosa PAO1 incubated for 18 hrs by crystal violet staining based spectroscopy", "assay_type": "functional, organism-based", "settings": "PAO1, 18 h"}, "[5]": {"tested_on": "Escherichia coli", "assay": "Antibacterial activity against Escherichia coli NCIM-2256 incubated for 24 hrs by two fold serial dilution method", "assay_type": "functional", "settings": "NCIM-2256, 24 h"}, "[6]": {"tested_on": "Bacillus subtilis", "assay": "Antibacterial activity against Bacillus subtilis NCIM-2063 incubated for 24 hrs by two fold serial dilution method", "assay_type": "functional", "settings": "NCIM-2063, 24 h"}, "[7]": {"assay": "Retardation factor of the compound", "assay_type": "physicochemical"}}, "note": "The source made the active and inactive calls. No cut-off for these calls is given here.", "data": [{"molecule": "Fc1cc(/N=C/c2cc3ccccc3nc2Cl)ccc1N1CCOCC1", "values": [{"measurement": "Activity", "setting": "[1]", "value": "Non-toxic"}, {"measurement": "inhibition", "setting": "[2]", "value": "Active"}, {"measurement": "MIC", "setting": "[3]", "value": 2.5, "unit": "µg/mL"}, {"measurement": "IC50", "setting": "[4]", "value": 13, "unit": "µM"}, {"measurement": "MIC", "setting": "[5]", "value": 10, "unit": "µg/mL"}, {"measurement": "MIC", "setting": "[6]", "value": 5, "unit": "µg/mL"}, {"measurement": "Rf", "setting": "[7]", "value": 0.46}]}, {"molecule": "Fc1cc(/N=C/c2c(Cl)cccc2Cl)ccc1N1CCOCC1", "values": [{"measurement": "MIC", "setting": "[3]", "value": 30, "unit": "µg/mL"}, {"measurement": "IC50", "setting": "[4]", "value": 27.5, "unit": "µM"}, {"measurement": "MIC", "setting": "[5]", "value": 25, "unit": "µg/mL"}, {"measurement": "MIC", "setting": "[6]", "value": 20, "unit": "µg/mL"}, {"measurement": "Rf", "setting": "[7]", "value": 0.48}]}, {"molecule": "Fc1ccc(/C=N/c2ccc(N3CCOCC3)c(F)c2)cc1", "values": [{"measurement": "MIC", "setting": "[3]", "value": 20, "unit": "µg/mL"}, {"measurement": "IC50", "setting": "[4]", "value": 31.1, "unit": "µM"}, {"measurement": "MIC", "setting": "[5]", "value": 30, "unit": "µg/mL"}, {"measurement": "MIC", "setting": "[6]", "value": 20, "unit": "µg/mL"}, {"measurement": "Rf", "setting": "[7]", "value": 0.52}]}, {"molecule": "Cc1cccc2cc(/C=N/c3ccc(N4CCOCC4)c(F)c3)c(Cl)nc12", "values": [{"measurement": "Activity", "setting": "[1]", "value": "Non-toxic"}, {"measurement": "inhibition", "setting": "[2]", "value": "Active"}, {"measurement": "MIC", "setting": "[3]", "value": 3.5, "unit": "µg/mL"}, {"measurement": "IC50", "setting": "[4]", "value": 15.6, "unit": "µM"}, {"measurement": "MIC", "setting": "[5]", "value": 10, "unit": "µg/mL"}, {"measurement": "MIC", "setting": "[6]", "value": 10, "unit": "µg/mL"}, {"measurement": "Rf", "setting": "[7]", "value": 0.44}]}, {"molecule": "O=C(O)c1cn(C2CC2)c2cc(N3CCNCC3)c(F)cc2c1=O", "note": "[CIPROFLOXACIN]", "values": [{"measurement": "MIC", "setting": "[5]", "value": 25, "unit": "µg/mL"}]}, {"molecule": "Fc1cc(/N=C/c2ccoc2)ccc1N1CCOCC1", "values": [{"measurement": "MIC", "setting": "[3]", "value": 30, "unit": "µg/mL"}, {"measurement": "IC50", "setting": "[4]", "value": 35.9, "unit": "µM"}, {"measurement": "MIC", "setting": "[5]", "value": 35, "unit": "µg/mL"}, {"measurement": "MIC", "setting": "[6]", "value": 40, "unit": "µg/mL"}, {"measurement": "Rf", "setting": "[7]", "value": 0.61}]}, {"molecule": "Oc1ccc(/C=N/c2ccc(N3CCOCC3)c(F)c2)cc1O", "values": [{"measurement": "MIC", "setting": "[3]", "value": 20, "unit": "µg/mL"}, {"measurement": "IC50", "setting": "[4]", "value": 31.6, "unit": "µM"}, {"measurement": "MIC", "setting": "[5]", "value": 30, "unit": "µg/mL"}, {"measurement": "MIC", "setting": "[6]", "value": 25, "unit": "µg/mL"}, {"measurement": "Rf", "setting": "[7]", "value": 0.59}]}, {"molecule": "Fc1cc(/N=C/c2ccccc2)ccc1N1CCOCC1", "values": [{"measurement": "MIC", "setting": "[3]", "value": 20, "unit": "µg/mL"}, {"measurement": "IC50", "setting": "[4]", "value": 39.4, "unit": "µM"}, {"measurement": "MIC", "setting": "[5]", "value": 35, "unit": "µg/mL"}, {"measurement": "MIC", "setting": "[6]", "value": 30, "unit": "µg/mL"}, {"measurement": "Rf", "setting": "[7]", "value": 0.64}]}, {"molecule": "COc1ccc(/C=N/c2ccc(N3CCOCC3)c(F)c2)cc1OC", "values": [{"measurement": "MIC", "setting": "[3]", "value": 20, "unit": "µg/mL"}, {"measurement": "IC50", "setting": "[4]", "value": 27.9, "unit": "µM"}, {"measurement": "MIC", "setting": "[5]", "value": 20, "unit": "µg/mL"}, {"measurement": "MIC", "setting": "[6]", "value": 20, "unit": "µg/mL"}, {"measurement": "Rf", "setting": "[7]", "value": 0.55}]}, {"molecule": "Fc1cc(/N=C/c2c[nH]c3ccccc23)ccc1N1CCOCC1", "values": [{"measurement": "MIC", "setting": "[3]", "value": 25, "unit": "µg/mL"}, {"measurement": "IC50", "setting": "[4]", "value": 29.1, "unit": "µM"}, {"measurement": "MIC", "setting": "[5]", "value": 40, "unit": "µg/mL"}, {"measurement": "MIC", "setting": "[6]", "value": 35, "unit": "µg/mL"}, {"measurement": "Rf", "setting": "[7]", "value": 0.52}]}, {"molecule": "CC(=O)NC[C@H]1CN(c2ccc(N3CCOCC3)c(F)c2)C(=O)O1", "note": "[LINEZOLID]", "values": [{"measurement": "MIC", "setting": "[3]", "value": 2.5, "unit": "µg/mL"}, {"measurement": "IC50", "setting": "[4]", "value": 15.9, "unit": "µM"}, {"measurement": "MIC", "setting": "[5]", "value": 2, "unit": "µg/mL"}, {"measurement": "MIC", "setting": "[6]", "value": 3, "unit": "µg/mL"}]}]}
